Patent US4833079A, “Process for producing 3,7-dihydroxytropolone and antitumor use thereof” (Bristol-Myers Company, priority 1986, dated 1989)
Values after ≈ are worked out from the molar mass of the structure shown. Like-named read-outs stand apart in the source and are kept apart here.

Legend:
[1] = system: B16-F10 cells; assay: in vitro cytotoxicity against B16-F10 murine melanoma cells (neutral red, 72 hours); assay type: cell-based; conditions: for IC50: Mus musculus, read-out: Cytotoxicity vs B16 IC50
Method: (§1) BU-3129T (3,7-dihydroxytropolone) and its analogs were tested for in vitro cytotoxicity against logarithmically growing murine melanoma tumor cells in liquid culture. B16-F10 cells (4×10^4 cells) in the enriched MEM (Minimum essential medium (Eagle's)) containing test material solution were planted into wells of 96-well microtiter plates and incubated at 37° C., with 5% CO2 under high humidity for 72 hours. After staining with neutral red, cytotoxicity of test material was determined colorimetrically. The inhibitory effects on macromolecule biosynthesis were examined in cultured L1210 leukemia cells. L1210 cells (5×10^5 cells) were exposed to radioactive precursors (^3 H-thymidine, ^14 C-uridine and ^3 H-leucine) for 60 min after the treatment with test material for 15 min. The incorporated radioactivities into acid-insoluble fractions were measured by using a liquid scintillation counter. The in vivo antitumor activity of BU-3129T was determined in male BDF1 mice against leukemia P388 and melanoma B16. Leukemia P388 and melanoma B 16 were inoculated by the intraperitoneal injection at 10^6 cells and 0.5 ml of a 10% tumor brei per mouse, respectively. Test material was administered to mice intraperitoneally once daily through 1 to 9 days after tumor implantation. Tropolone and mitomycin C were comparatively tested in the experiments.

[2] = system: leukemia P388; assay type: in vivo, mice; conditions: for MST / T/C: qd 1→9, ip
Method: as §1

[3] = system: melanoma B16; assay: in vivo antitumor activity against melanoma B16 in male BDF1 mice; conditions: for antitumor activity against melanoma B16: in words, mice
Method: as §1

[4] = system: L1210 leukemia cells; assay: inhibition of macromolecule biosynthesis in cultured L1210 leukemia cells (incorporation of radioactive precursors); assay type: cell-based; conditions: Mus musculus
Method: as §1

[5] = solubility; assay type: physicochemical
[6] = system: mammalian malignant tumors; assay: inhibitory action against mammalian malignant tumors (summary statement); conditions: in words
Method: as §1

[7] = in words; Kirst paper; cited from earlier work
[8] = Exp. 1, 0.1 mg/kg/day, qd 1→9, ip
[9] = Exp. 1, 0.3 mg/kg/day, qd 1→9, ip
[10] = Exp. 1, 1.0 mg/kg/day, qd 1→9, ip
[11] = L1210, DNA, 3H-thymidine, 60 min after 15 min treatment, read-out: Inhibition of macromolecule biosynthesis vs L1210 IC50, DNA
[12] = L1210, Protein, 3H-leucine, 60 min after 15 min treatment, read-out: Inhibition of macromolecule biosynthesis vs L1210 IC50, Protein
[13] = L1210, RNA, 14C-uridine, 60 min after 15 min treatment, read-out: Inhibition of macromolecule biosynthesis vs L1210 IC50, RNA
[14] = Exp. 1, 0.16 mg/kg/day, qd 1→9, ip
[15] = Exp. 1, 2.5 mg/kg/day, qd 1→9, ip
[16] = Exp. 2, 1.0 mg/kg/day, qd 1→9, ip
[17] = Exp. 2, 3.0 mg/kg/day, qd 1→9, ip
[18] = Exp. 2, 10 mg/kg/day, qd 1→9, ip
[19] = Exp. 2, 30 mg/kg/day, qd 1→9, ip

## CO[C@@]12[C@H](COC(N)=O)C3=C(C(=O)C(C)=C(N)C3=O)N1C[C@@H]1N[C@@H]12 [Mitomycin C]
[1]; B16-F10, 72 h
  IC50: 2 µg/mL (≈ 5.98 µM)
[2]; 0.08 mg/kg/day
  MST: 12.0 days
  T/C: 114%
[2]; 0.16 mg/kg/day
  MST: 15.0 days
[2]; 0.31 mg/kg/day
  MST: 16.0 days
[2]; 1.3 mg/kg/day
  MST: 21.0 days
[3]; [8]
  Average weight change on day 5: +1.0 g
  MST: 16.0 days
  T/C: 100%
[3]; [9]
  Average weight change on day 5: +0.4 g
  MST: 22.0 days
[3]; [10]
  Average weight change on day 5: +0.6 g
  MST: 27.0 days

## O=c1c(O)cccc(O)c1O [BU-3129T, 3,7-dihydroxytropolone]
[1]
  potency order in the in vitro cytotoxicity test: most potent
[1]; B16-F10, 72 h
  IC50: 0.04 µg/mL (≈ 0.26 µM)
[1]; mouse, 4320 min
  times more cytotoxic against B16 melanoma than tropolone and the hydroxytropolones compared: 10-40 times
[4]; L1210, DNA, RNA and protein together, non-specific, read-out: inhibitory effects on DNA, RNA and protein biosynthesis, IC50 values
  IC50: 9 to 14 µg/mL (≈ 58.4 to 90.8 µM)
[4]; [11]
  IC50: 9.4 µg/mL (≈ 61 µM)
[4]; [12]
  IC50: 11 µg/mL (≈ 71.4 µM)
[4]; [13]
  IC50: 14 µg/mL (≈ 90.8 µM)
[2]; 0.16 mg/kg/day
  MST: 11.0 days
  T/C: 105%
[2]; 0.31 mg/kg/day
  MST: 11.0 days
  T/C: 105%
[2]; 0.63 mg/kg/day
  MST: 10.0 days
  T/C: 95%
[2]; 1.3 mg/kg/day
  MST: 11.0 days
  T/C: 105%
[2]; 2.5 mg/kg/day
  MST: 10.0 days
  T/C: 95%
[2]; in words, mice, ip
  antitumor activity against leukemia P388: no activity
[3]; [14]
  MST: 16.0 days
  T/C: 100%
[3]; Exp. 1, 0.31 mg/kg/day, qd 1→9, ip
  MST: 18.0 days
[3]; Exp. 1, 0.63 mg/kg/day, qd 1→9, ip
  MST: 23.0 days
[3]; Exp. 1, 1.3 mg/kg/day, qd 1→9, ip
  MST: 29.0 days
[3]; [15]
  MST: 12.0 days
  T/C: 75%
[3]; Exp. 1, 5.0 mg/kg/day, qd 1→9, ip
  toxicity: tox
[3]; ip
  antitumor activity against melanoma B16: significant antitumor activity
[3]; mouse, in vivo, ip, 0.16 mg/kg/day
  Average weight change on day 5: +0.4 g
[3]; mouse, in vivo, ip, 0.31 mg/kg/day
  Average weight change on day 5: +1.2 g
[3]; mouse, in vivo, ip, 0.63 mg/kg/day
  Average weight change on day 5: +1.0 g
[3]; mouse, in vivo, ip, 1.3 mg/kg/day
  Average weight change on day 5: +0.4 g
[3]; mouse, in vivo, ip, 2.5 mg/kg/day
  Average weight change on day 5: -0.8 g
[5]; dimethylformamide
  solubility: readily soluble
[5]; dimethylsulfoxide
  solubility: readily soluble
[5]; ethanol
  solubility: slightly soluble
[5]; methanol
  solubility: slightly soluble
[5]; other organic solvents
  solubility: practically insoluble
[5]; water
  solubility: slightly soluble
[6]
  inhibitory action against mammalian malignant tumors: marked inhibitory action
[7]
  antimicrobial activity: possesses antimicrobial activity

## O=c1c(O)ccccc1O [7-hydroxytropolone]
[1]
  potency order in the in vitro cytotoxicity test: follow by 7-hydroxytropolone, 4,7-dihydroxytropolone, tropolone and 5-hydroxytropolone
[1]; B16-F10, 72 h
  IC50: 0.3 µg/mL (≈ 2.17 µM)
[4]; [11]
  IC50: 21 µg/mL (≈ 152 µM)
[4]; [12]
  IC50: > 100 µg/mL
[4]; [13]
  IC50: 41 µg/mL (≈ 297 µM)

## O=c1ccc(O)ccc1O [5-hydroxytropolone]
[1]
  potency order in the in vitro cytotoxicity test: follow by 7-hydroxytropolone, 4,7-dihydroxytropolone, tropolone and 5-hydroxytropolone
[1]; B16-F10, 72 h
  IC50: 2.4 µg/mL (≈ 17.4 µM)
[4]; [11]
  IC50: > 100 µg/mL
[4]; [12]
  IC50: 100 µg/mL (≈ 724 µM)
[4]; [13]
  IC50: > 100 µg/mL

## O=c1cccccc1O [Tropolone]
[1]; B16-F10 cells, 72 hours
  IC50: 1.8 µg/mL (≈ 14.7 µM)
[1]; in words
  potency order in the in vitro cytotoxicity test: follow by 7-hydroxytropolone, 4,7-dihydroxytropolone, tropolone and 5-hydroxytropolone
[4]; L1210, read-out: Inhibition of macromolecule biosynthesis vs L1210 IC50, DNA
  IC50: 2.2 µg/mL (≈ 18 µM)
[4]; L1210, read-out: Inhibition of macromolecule biosynthesis vs L1210 IC50, Protein
  IC50: 9.9 µg/mL (≈ 81.1 µM)
[4]; L1210, read-out: Inhibition of macromolecule biosynthesis vs L1210 IC50, RNA
  IC50: 20 µg/mL (≈ 164 µM)
[3]; [16]
  Average weight change on day 5: +2.3 g
  MST: 19.0 days
  T/C: 112%
[3]; [17]
  Average weight change on day 5: +2.5 g
  MST: 17.5 days
  T/C: 103%
[3]; [18]
  Average weight change on day 5: +3.3 g
  MST: 18.0 days
  T/C: 106%
[3]; [19]
  Average weight change on day 5: +2.0 g
  MST: 18.0 days
  T/C: 106%
[3]; ip
  antitumor activity against melanoma B16: did not show any activity

## O=c1c(O)ccc(O)cc1O [4,7-dihydroxytropolone]
[1]
  potency order in the in vitro cytotoxicity test: follow by 7-hydroxytropolone, 4,7-dihydroxytropolone, tropolone and 5-hydroxytropolone
[1]; B16-F10, 72 h
  IC50: 0.38 µg/mL (≈ 2.47 µM)
[4]; [11]
  IC50: 39 µg/mL (≈ 253 µM)
[4]; [12]
  IC50: > 100 µg/mL
[4]; [13]
  IC50: > 100 µg/mL
